# “Also recorded” adds a separate entry of the source.
# Tests used:
# pig kidney fucokinase [1] = target: T1, pig kidney fucokinase (Sus scrofa, UniProt I3LTC2); test: Inhibition of [3H]L-fucose phosphorylation by unlabeled monosaccharides; type: biochemical; settings: for Relative Activity (%): unlabeled monosaccharide 500 μM, radiolabeled L-fucose substrate 100 μM; for inhibition of phosphorylation of [3H]L-fucose (in words): unlabeled sugar 500 μM
# T1 construct: L-Fucokinase was purified to apparent homogeneity from the cytosolic fraction of pig kidney; from tissue; host or cells: pig kidney, cytosolic fraction
# T1 sequence (I3LTC2 1-1083): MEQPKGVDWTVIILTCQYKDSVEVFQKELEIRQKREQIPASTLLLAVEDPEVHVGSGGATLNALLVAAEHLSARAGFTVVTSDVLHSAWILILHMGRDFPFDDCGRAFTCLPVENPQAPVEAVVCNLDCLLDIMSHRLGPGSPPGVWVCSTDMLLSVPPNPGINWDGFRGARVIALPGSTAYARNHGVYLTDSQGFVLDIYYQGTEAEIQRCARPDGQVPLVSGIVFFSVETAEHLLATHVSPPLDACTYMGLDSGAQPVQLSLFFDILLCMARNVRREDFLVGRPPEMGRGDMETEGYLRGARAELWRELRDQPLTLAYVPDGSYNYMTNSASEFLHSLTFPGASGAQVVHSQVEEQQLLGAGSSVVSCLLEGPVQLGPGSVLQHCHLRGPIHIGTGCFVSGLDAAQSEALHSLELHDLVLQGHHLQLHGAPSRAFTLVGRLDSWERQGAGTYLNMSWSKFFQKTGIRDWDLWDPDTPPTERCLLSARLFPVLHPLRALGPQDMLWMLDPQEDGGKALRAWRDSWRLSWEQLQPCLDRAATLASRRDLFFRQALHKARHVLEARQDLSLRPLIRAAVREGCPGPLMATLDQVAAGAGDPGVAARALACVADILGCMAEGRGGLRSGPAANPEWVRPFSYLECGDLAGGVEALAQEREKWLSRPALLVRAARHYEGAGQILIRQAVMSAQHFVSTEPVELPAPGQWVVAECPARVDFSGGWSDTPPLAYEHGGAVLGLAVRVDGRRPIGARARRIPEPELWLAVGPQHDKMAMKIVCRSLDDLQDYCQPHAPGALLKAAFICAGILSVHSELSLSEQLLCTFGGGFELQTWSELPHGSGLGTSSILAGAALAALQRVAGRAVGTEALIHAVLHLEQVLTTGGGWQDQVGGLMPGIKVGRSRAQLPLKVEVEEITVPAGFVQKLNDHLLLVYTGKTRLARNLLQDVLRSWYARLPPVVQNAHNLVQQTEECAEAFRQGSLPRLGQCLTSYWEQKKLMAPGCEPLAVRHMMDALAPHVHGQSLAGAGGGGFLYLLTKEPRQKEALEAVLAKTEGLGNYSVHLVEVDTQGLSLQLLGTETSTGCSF
# Method: (§1) Fucokinase activity was assayed by measuring the production of L-fucose-1-Pfrom [^3 H]L-fucose and ATP. The incubation mixtures contained the following components (final concentrations) in a total volume of 150 μl: L-fucose, 0.1 mM; ATP, 5 mM; MgSO4, 5 mM; Tris-HCl buffer, pH 8.0, 65 mM; and various amounts of enzyme at the different stages of purification. Incubations were at 37° C. for 10 minutes, and reactions were terminated by heating the reaction mixtures in a boiling water bath for 1 minute. The incubation mixtures were then applied to a column of DE-52 contained in a Pasteur pipette, and the column was washed with at least 5 column volumes of 10 mM (NH4)HCO3 to remove the unbound material. The [^3 H]fucose-1-P was then eluted with 500 mM (NH4)HCO3. Aliquots of the eluates were assayed for their radioactive content by subjecting a portion to scintillation counting.
# Although it was possible to get a reasonable assessment of the sugar specificity of the kinase from the above experiment, it was not possible to test sugars such as D-fucose, since these sugars are not available in radioactive form. Thus, these unlabeled sugars were tested for their ability to inhibit the phosphorylation of [^3 H]L-fucose. The rationale for this experiment is that a sugar that inhibits the phosphorylation of L-fucose would probably compete with L-fucose for the phosphorylation (i.e., active) site.
# pig kidney fucokinase [2] = target: T1, pig kidney fucokinase; test: Specificity of fucokinase for phosphate donor (nucleotides); type: biochemical; settings: for activity as phosphate donor (in words): nucleotide added at 1 mM; for Specific Activity: nucleotide added at 1 mM as phosphate donor
# Method: as §1
# The specificity of the nucleoside triphosphate was also examined by testing the ability of a variety of nucleotides to serve as phosphate donors in the phosphorylation of [^3 H]L-fucose. […] In addition, no activity is observed with any nucleoside diphosphates or monophosphates.
# pig kidney fucokinase [3] = target: T1, pig kidney fucokinase; test: Effect of metal ions on fucokinase activity; type: biochemical; settings: for effect on activity when added to incubations containing Mg++ (in words): metal ion at 1 mM
# Method: Increasing concentrations of the metal ions shown were added to incubations of the purified enzyme with ^3 H-fucose and ATP, and the formation of fucose-1-P was measured as described below. Metal ions tested were as follows: Mg^++, filled circles; Fe^++, filled diamonds; Co^++, filled triangles; Mn^++, filled squares.
# as §1
# Co^++ and Mn^++ were also stimulatory with maximum activity occurring at about 3 to 5 mM, but the maximum activity was only about 25% to 33% of that observed with Mg^++.
# [4] = target: T2, pig kidney fucokinase (110 kDa band) (Sus scrofa, UniProt I3LTC2); test: Photoaffinity labeling of the fucokinase with 8-azido-ATP[32P]; type: binding; settings: for labeling of the 110 kDa protein by photoprobe (in words): incubation with probe, exposure to UV light
# T2 construct: L-Fucokinase was purified to apparent homogeneity from the cytosolic fraction of pig kidney; from tissue; host or cells: pig kidney, cytosolic fraction
# T2 sequence (I3LTC2 1-1083): T1 sequence (I3LTC2 1-1083)
# Method: The purified enzyme was incubated for 20 seconds with azido-ATP[^32 P], and the mixture was exposed to UV for 90 seconds. The reaction was stopped by adding loading buffer and the mixture subjected to SDS-PAGE. Radioactive bands were detected by exposure to film. Lanes are as follows: Lane 1, Probe+enzyme, but no UV; Lane 2, Probe+enzyme+UV; Lanes 3 through 6. Probe+enzyme+0.3, 0.6, 0.9, and 1.2 mM ATP+exposure to UV light; lanes 7 and 8, 0.6 and 1.2 mM GTP+probe+exposure to UV light: lanes 9 and 10, 0.6 and 1.2 mM ITP+probe+exposure to UV light. In lanes 11 and 12, the enzyme was incubated with N3 -GTP[^32 P ] and then exposed to UV light (lane 12) or not exposed to UV light (lane 11). Lane 13 is a control of enzyme+N3 -ATP[^32 P]+exposure to UV light.
# Enzyme, at various stages of purity, was mixed with 8-azido-ATP[^32 P] in buffer, and allowed to incubate for 20 sec. in an ice bath. 8-Azido-ATP[^32 P] was prepared as previously described (16). After incubation, the reaction mixture was exposed to short wave UV light for about 90 sec. to activate the azido group, and the protein was subjected to SDS gel electrophoresis to separate the proteins. The gels were dried and exposed to film to locate the radioactive bands and were also stained with Coomassie blue to locate the various proteins. The specificity of the labeling was determined by examining the effect of various concentrations of unlabeled ATP or other nucleotides on the labeling of the protein by N3 -ATP[^32 P]. Various controls were also run, such as one in which exposure to UV was omitted.
# Lanes 11-13 of FIG. 3 show the results of another experiment designed to determine whether 8-N3 -GTP[^32 P] could label the fucokinase. […] These experiments indicate that the fucokinase is quite specific for ATP.
# [5] = system: pig liver L-fucokinase preparation; settings: cited from earlier work
# pig kidney fucokinase [6] = target: T1, pig kidney fucokinase; test: Sugar specificity of purified fucokinase (radiolabeled sugars as phosphate acceptors); type: biochemical; settings: for Specific Activity: radiolabeled sugar 100 μM as phosphate acceptor
# Method: as §1
# The specificity of the kinase for various sugar substrates was examined in two different ways. In the first set of experiments, various radiolabeled sugars were tested as phosphate acceptors for the purified enzyme using the ion-exchange chromatography method for assay of activity. […] D-Arabinose, which has the same configuration at carbons 1 through 4 as L-fucose, was also a reasonable substrate for phosphorylation, and was about 10% as effective as L-fucose. On the other hand, all of the other sugars were ineffective as phosphate acceptors.
molecule,measurement,setting,value
O=CC[C@@H](O)[C@H](O)[C@H](O)CO [2-deoxy-D-glucose],Relative Activity (%),pig kidney fucokinase [1],92%
same,inhibition of phosphorylation of [3H]L-fucose (in words),pig kidney fucokinase [1],ineffective as inhibitors
O=c1ccn([C@@H]2O[C@H](COP(=O)(O)O)[C@@H](O)[C@H]2O)c(=O)[nH]1 [UMP],activity as phosphate donor (in words),pig kidney fucokinase [2],Inactive
O=c1ccn([C@@H]2O[C@H](COP(=O)(O)OP(=O)(O)O)[C@@H](O)[C@H]2O)c(=O)[nH]1 [UDP],activity as phosphate donor (in words),pig kidney fucokinase [2],Inactive
[Ni+2] [Ni^++],stimulation of enzyme activity by metal ion (in words),pig kidney fucokinase [3],inactive
Nc1ncnc2c1ncn2[C@@H]1O[C@H](COP(=O)(O)OP(=O)(O)OP(=O)(O)O)[C@@H](O)[C@H]1O [ATP],inhibition of labeling of the 110 kDa band by N3-ATP[32P] (in words),"[4]; unlabeled ATP 0.3-1.2 mM, GTP, ITP 0.6 and 1.2 mM",inhibited in a dose-dependent manner
same,Specific Activity,pig kidney fucokinase [2],4.05 nmoles/mg protein/10 min
"[N-]=[N+]=Nc1nc2c(N)ncnc2n1[C@@H]1O[C@H](COP(=O)(O)OP(=O)(O)OP(=O)(O)O)[C@@H](O)[C@H]1O [N3 -ATP[^32 P], 8-azido-ATP[^32 P]]",labeling of the 110 kDa protein by photoprobe (in words),[4],did result in labeling of the 110 kDa protein
Nc1ccn([C@@H]2O[C@H](COP(=O)(O)OP(=O)(O)OP(=O)(O)O)[C@@H](O)[C@H]2O)c(=O)n1 [CTP],Specific Activity,pig kidney fucokinase [2],0.05 nmoles/mg protein/10 min
same,use as phosphate donor (in words),[5],could also use
Nc1nc2c(ncn2[C@@H]2O[C@H](COP(=O)(O)OP(=O)(O)O)[C@@H](O)[C@H]2O)c(=O)[nH]1 [GDP],activity as phosphate donor (in words),pig kidney fucokinase [2],Inactive
C[C@H](O)[C@H](O)[C@@H](O)[C@@H](O)C=O [L-rhamnose],inhibition of phosphorylation of [3H]L-fucose (in words),pig kidney fucokinase [1],ineffective as inhibitors
same,phosphorylation of sugar by the about 70-fold purified preparation (in words),[5],considerable activity for phosphorylating
Nc1ccn([C@@H]2O[C@H](COP(=O)(O)OP(=O)(O)O)[C@@H](O)[C@H]2O)c(=O)n1 [CDP],activity as phosphate donor (in words),pig kidney fucokinase [2],Inactive
C[C@@H](O)[C@@H](O)[C@H](O)[C@H](O)C=O [D-rhamnose],Relative Activity (%),pig kidney fucokinase [1],102%
C[C@H](O)[C@@H](O)[C@@H](O)[C@H](O)C=O [L-fucose],Relative Activity (%),pig kidney fucokinase [1],23%
same,inhibition of phosphorylation of [3H]L-fucose (in words),pig kidney fucokinase [1],reasonable inhibitor
same,activity as phosphate acceptor (in words),pig kidney fucokinase [6]; purified enzyme,by far the best substrate; also recorded: active as phosphate acceptors
same,Specific Activity,pig kidney fucokinase [6],11.8 nmole/mg protein
Nc1ncnc2c1ncn2[C@@H]1O[C@H](COP(=O)(O)OP(=O)(O)O)[C@@H](O)[C@H]1O [ADP],activity as phosphate donor (in words),pig kidney fucokinase [2],Inactive
O=C[C@@H](O)[C@H](O)[C@H](O)CO [D-arabinose],Relative Activity (%),pig kidney fucokinase [1],80%
same,inhibition of phosphorylation of [3H]L-fucose (in words),pig kidney fucokinase [1],inhibited although considerably less so than the L-fucose
same,activity as phosphate acceptor (in words),pig kidney fucokinase [6]; purified enzyme,active as phosphate acceptors
same,rate of phosphorylation relative to L-fucose,"pig kidney fucokinase [6]; purified enzyme, sugar as phosphate acceptor",about 10%
same,Specific Activity,pig kidney fucokinase [6],1.1 nmole/mg protein
[Ca+2] [Ca^++],stimulation of enzyme activity by metal ion (in words),pig kidney fucokinase [3],inactive
O=C[C@H](O)[C@@H](O)[C@H](O)CO [D-xylose],Relative Activity (%),pig kidney fucokinase [1],103%
same,Specific Activity,pig kidney fucokinase [6],0 nmole/mg protein
Nc1ccn([C@@H]2O[C@H](COP(=O)(O)O)[C@@H](O)[C@H]2O)c(=O)n1 [CMP],activity as phosphate donor (in words),pig kidney fucokinase [2],Inactive
Nc1nc2c(ncn2[C@@H]2O[C@H](COP(=O)(O)O)[C@@H](O)[C@H]2O)c(=O)[nH]1 [GMP],activity as phosphate donor (in words),pig kidney fucokinase [2],Inactive
Nc1ncnc2c1ncn2[C@@H]1O[C@H](COP(=O)(O)O)[C@@H](O)[C@H]1O [AMP],activity as phosphate donor (in words),pig kidney fucokinase [2],Inactive
[Mo+2] [Mo^++],stimulation of enzyme activity by metal ion (in words),pig kidney fucokinase [3],inactive
[Cu+2] [Cu^++],stimulation of enzyme activity by metal ion (in words),pig kidney fucokinase [3],inactive
same,effect on activity when added to incubations containing Mg++ (in words),pig kidney fucokinase [3],completely inhibited activity
[Hg+2] [Hg^++],stimulation of enzyme activity by metal ion (in words),pig kidney fucokinase [3],inactive
same,effect on activity when added to incubations containing Mg++ (in words),pig kidney fucokinase [3],completely inhibited activity
[Mg+2] [Mg^++],stimulation of enzyme activity by metal ion (in words),pig kidney fucokinase [3],gave the best stimulation
8-N3 -GTP[^32 P],labeling of the 110 kDa protein by photoprobe (in words),[4],did not give rise to labeled protein
C[C@@H](O)[C@H](O)[C@H](O)[C@@H](O)C=O [D-fucose],Relative Activity (%),pig kidney fucokinase [1],102%
same,inhibition of phosphorylation of [3H]L-fucose (in words),pig kidney fucokinase [1],ineffective as inhibitors
[Fe+3] [Fe^+++],stimulation of enzyme activity by metal ion (in words),pig kidney fucokinase [3],inactive
O=c1ccn([C@@H]2O[C@H](COP(=O)(O)OP(=O)(O)OP(=O)(O)O)[C@@H](O)[C@H]2O)c(=O)[nH]1 [UTP],Specific Activity,pig kidney fucokinase [2],0.04 nmoles/mg protein/10 min
same,use as phosphate donor (in words),[5],could also use
[Zn+2] [Zn^++],stimulation of enzyme activity by metal ion (in words),pig kidney fucokinase [3],inactive
same,effect on activity when added to incubations containing Mg++ (in words),pig kidney fucokinase [3],completely inhibited activity
[Fe+2] [Fe^++],metal ion concentration at optimum (maximum) activity,pig kidney fucokinase [3],about 10 mM
same,stimulation of enzyme activity by metal ion (in words),pig kidney fucokinase [3],nearly the same degree as Mg^++
O=C[C@H](O)[C@H](O)[C@H](O)CO [D-ribose],Relative Activity (%),pig kidney fucokinase [1],96%
same,Specific Activity,pig kidney fucokinase [6],0 nmole/mg protein
same,phosphorylation of sugar by the about 70-fold purified preparation (in words),[5],considerable activity for phosphorylating

# — patent publication US6090605A, “Purified porcine kidney L-fucose kinase” (The Board of Trustees of the University of Arkansas, priority 1998, dated 2000)
